Test results published in patent publication US20230218555A1, “CREATINE, ITS DERIVATIVES, COMPOSITIONS AND METHODS OF USE THEREOF” (priority 2021, published 2023).

Experiments:
Type in all cases: in vivo, human
[1] = tested on: acute pain in the left side of their neck; test: Example 11: acute neck pain; conditions: 1.5% in water: propylene glycol 8:2, topical to neck
Text: A subject who had shoveled heavy snow all day, throwing the snow mostly to left, upon arising from bed the next morning experienced acute pain in the left side of their neck that intensified as they attempted to move their head in any direction.

[2] = tested on: migraine headaches and associated symptoms; test: Example 29: migraine headache
Procedure: A subject, with a history of migraine headaches and associated symptoms, presented with a recurrent episode of such that had begun during their night of sleep. Symptoms included an intense frontal headache, and feeling of light dizziness, and nausea when they turned their head. They were provided a 9% solution of C15 dissolved in WEP 532 to be applied to the forehead and temporal areas as needed to relieve symptoms. […] Relief lasted for 1-4 hours during the first day of use, and during the second day of use, the subject experienced a much longer period of relief of symptoms.

post trauma pain = test: Example 33: post trauma pain of hand
Text: A subject was provided a 9% solution of C15 in WEP 532 for possible use against itch or pain. Several weeks later they sent by e-mail the following message:
“Yesterday I slammed the top of my hand accidentally against a door. That really hurt and I could barely move my hand. Started to ice it and then realized that I had decided to keep one bottle of the pain medicine here at the shore. […] Like a miracle. Iced it after as I could tell a welt was forming. Again at bedtime I put a little of the pain med on it in case the earlier application wore off and iced again as it was a bit swollen. Looked red and maybe a little swollen this morning but no pain!”

poison ivy dermatitis = test: Example 36: poison ivy dermatitis itch
Procedure: A subject developed poison ivy dermatitis of their forearms about 18 hours after pruning bushes. Itch was intense at 24 hours when they applied C15 10% in a lotion made up of hydrophilic ointment USP 35% diluted with 65% water. […] Duration of itch relief next was for about 10 hours and the next for 12-15 hours. Relief was longer and longer from subsequent applications. Signs and symptoms of dermatitis were gone at 4 days.

[3] = tested on: burning itch induced by Mucuna pruriens spicules; test: Example 38: burning itch induced by Mucuna pruriens; conditions: 10% in lotion
Procedure: Pods with beans were obtained from Afro Caribe Botanica, 16 separate specimens. Small round brushes marketed for interdental cleaning were used to collect spicules from the pods. Application to both volar and extensor surfaces of the forearm were made by intense rubbing of the skin with such brush containing spicules. Burning itch developed within 5-7 minutes. […] Participants in this study included the following; • 1. A person. • 2. A person. • 3. A person. • 4. A person. • 5. A person.

## CCOC(=O)CN(C)C(N)=NC(C)=O [Compound C15, N-acetyl ethyl creatinate]
[1]
  time to pain relief: ≤ 2 min
[1]; person
  extent of pain relief: neck pain subsided completely and did not return
[2]; 9% in WEP 532, to forehead and temporal areas
  relief of symptoms: relieved symptoms within a few minutes
[2]; first day of use
  duration of relief: 1 to 4 h
[2]; following 3 more applications
  symptoms at end of third day: symptoms were no longer detectable
[2]; next week
  follow-up: remained symptoms free over the next week of follow-up
Post trauma pain; 9% in WEP 532, topical to hand
  relief of pain: in a minute or two the pain went away
Post trauma pain; second application at bedtime
  pain next morning: no pain
Poison ivy dermatitis; 10% in lotion (hydrophilic ointment USP 35%, water 65%), forearms
  relief of itch: Relief of itch was immediate
Poison ivy dermatitis; first application
  duration of itch relief: about 6 hours
Poison ivy dermatitis; repeated applications
  time until signs and symptoms of dermatitis were gone: 4 days
Poison ivy dermatitis; second application
  duration of itch relief: about 10 hours
Poison ivy dermatitis; third application
  duration of itch relief: 12 to 15 h
[3]
  persistence of relief: permanent
  time to complete relief of itch: 1 to 2 min
[3]; forearm, five participants
  extent of itch relief: complete relief of itch
